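How tested: cells in 96-well plates exposed to compound for 48 hours at five concentrations. Abbreviation: GI50, concentration required for 50% inhibition of growth.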 Activity calls are given as the source filed them. Rule as the data show it: active = GI50 up to about 1.1 µM and inactive = higher.
Key:
Assay in all cases: inhibition of tumour cell growth, NCI panel, 48 h
[1] = system: A498
[2] = system: A549
[3] = system: CAKI-1
[4] = system: HCC 2998
[5] = system: HCT-15
[6] = system: KM12
[7] = system: M14
[8] = system: MDA-MB-231
[9] = system: NCI/ADR-RES
[10] = system: OVCAR-5
[11] = system: SF-268
[12] = system: SF-539
[13] = system: SK-MEL-2
[14] = system: SNB-19
[15] = system: SNB-75
[16] = system: UACC-62
[17] = system: MCF7
[18] = system: SF-295
[19] = system: UO-31
[20] = system: EKVX

For `CCN(CC)c1ccc2cc(C(N)=O)c(=N)oc2c1`, the GI50 [1] was 38.2 µM (inactive), the GI50 [2] was 37.4 µM (inactive) and the GI50 [3] was 35.4 µM (inactive). The GI50 [4] was 5.36 µM (inactive), the GI50 [5] was 35 µM and the GI50 [6] was 31 µM (inactive). The GI50 [7] was 34.4 µM (inactive), the GI50 [8] was 32.1 µM (inactive) and the GI50 [9] was 53.1 µM (inactive). For the same compound, the GI50 [10] was 51.5 µM (inactive), the GI50 [11] was 42.3 µM (inactive) and the GI50 [12] was 4.15 µM (inactive). The GI50 [13] was 21.3 µM (inactive), the GI50 [14] was 42.1 µM (inactive) and the GI50 [15] was 26.5 µM (inactive). The GI50 [16] was 30.8 µM (inactive).

`O=C1CC2(CCN(Cc3ccccc3)CC2)C(=O)N1N1CCCCC1` was tested, and the GI50 [1] was > 100 µM (inactive), the GI50 [2] was > 100 µM (inactive) and the GI50 [3] was > 100 µM (inactive). For the same compound, the GI50 [5] was > 100 µM, the GI50 [6] was > 100 µM (inactive) and the GI50 [7] was > 100 µM (inactive). The GI50 [17] was > 100 µM (inactive), the GI50 [8] was > 100 µM (inactive) and the GI50 [9] was > 100 µM (inactive). The GI50 [10] was > 100 µM (inactive), the GI50 [11] was > 100 µM (inactive) and the GI50 [18] was > 100 µM (inactive). The GI50 [12] was > 100 µM (inactive), the GI50 [13] was > 100 µM (inactive) and the GI50 [14] was > 100 µM (inactive). The GI50 [15] was > 100 µM (inactive), the GI50 [16] was > 100 µM (inactive) and the GI50 [19] was > 100 µM (inactive).

With `CC(=N/NC(=S)Nc1c(C)n(C)n(-c2ccccc2)c1=O)/C(C)=N\NC(=S)Nc1c(C)n(C)n(-c2ccccc2)c1=O` the GI50 [1] was > 100 µM (inactive), the GI50 [2] was > 100 µM (inactive) and the GI50 [3] was > 100 µM (inactive). The GI50 [20] was > 100 µM (inactive), the GI50 [4] was > 100 µM (inactive) and the GI50 [5] was > 100 µM. The GI50 [6] was > 100 µM (inactive), the GI50 [7] was > 100 µM (inactive) and the GI50 [8] was > 100 µM (inactive). For the same compound, the GI50 [9] was > 100 µM (inactive), the GI50 [10] was > 100 µM (inactive) and the GI50 [11] was > 100 µM (inactive). For the same compound, the GI50 [18] was > 100 µM (inactive), the GI50 [12] was > 100 µM (inactive) and the GI50 [13] was > 100 µM (inactive). For the same compound, the GI50 [14] was > 100 µM (inactive), the GI50 [15] was > 100 µM (inactive) and the GI50 [16] was > 100 µM (inactive). For the same compound, the GI50 [19] was > 100 µM (inactive).

With `CN(C)/N=C(/CC(O)(C(F)(F)F)C(F)(F)F)c1ccc([N+](=O)[O-])cc1` the GI50 [1] was > 100 µM (inactive), the GI50 [2] was > 100 µM (inactive) and the GI50 [3] was > 100 µM (inactive). For the same compound, the GI50 [20] was > 100 µM (inactive), the GI50 [4] was > 100 µM (inactive) and the GI50 [5] was > 100 µM. The GI50 [6] was > 100 µM (inactive), the GI50 [7] was > 100 µM (inactive) and the GI50 [8] was > 100 µM (inactive). For the same compound, the GI50 [9] was > 100 µM (inactive), the GI50 [10] was > 100 µM (inactive) and the GI50 [11] was > 100 µM (inactive). For the same compound, the GI50 [18] was > 100 µM (inactive), the GI50 [12] was > 100 µM (inactive) and the GI50 [13] was > 100 µM (inactive). For the same compound, the GI50 [14] was > 100 µM (inactive), the GI50 [15] was > 100 µM (inactive) and the GI50 [16] was > 100 µM (inactive). The GI50 [19] was 98.6 µM (inactive).

In the case of `CC1CC(=O)Nc2nc3ccccc3n21` (stereo not given), the GI50 [1] is reported as > 100 µM (inactive), the GI50 [2] is reported as > 100 µM (inactive) and the GI50 [3] is reported as > 100 µM (inactive). The GI50 [20] was 0.953 µM (active), the GI50 [5] was > 100 µM and the GI50 [6] was > 100 µM (inactive). For the same compound, the GI50 [7] was > 100 µM (inactive), the GI50 [17] was > 100 µM (inactive) and the GI50 [8] was > 100 µM (inactive). The GI50 [9] was > 100 µM (inactive), the GI50 [10] was > 100 µM (inactive) and the GI50 [11] was > 100 µM (inactive). The GI50 [18] was > 100 µM (inactive), the GI50 [12] was > 100 µM (inactive) and the GI50 [13] was > 100 µM (inactive). The GI50 [14] was > 100 µM (inactive), the GI50 [16] was > 100 µM (inactive) and the GI50 [19] was > 100 µM (inactive).

In the case of `CC(=O)OCc1cccc(O)c1C(=O)CCC=C(C)C`, the GI50 [1] is reported as > 100 µM (inactive), the GI50 [2] is reported as > 100 µM (inactive) and the GI50 [3] is reported as > 100 µM (inactive). The GI50 [20] was > 100 µM (inactive), the GI50 [4] was > 100 µM (inactive) and the GI50 [5] was > 100 µM. For the same compound, the GI50 [6] was > 100 µM (inactive), the GI50 [7] was > 100 µM (inactive) and the GI50 [17] was > 100 µM (inactive). The GI50 [9] was > 100 µM (inactive), the GI50 [10] was 29.3 µM (inactive) and the GI50 [11] was > 100 µM (inactive). For the same compound, the GI50 [18] was 32.7 µM (inactive), the GI50 [12] was > 100 µM (inactive) and the GI50 [13] was > 100 µM (inactive). For the same compound, the GI50 [14] was > 100 µM (inactive), the GI50 [16] was > 100 µM (inactive) and the GI50 [19] was > 100 µM (inactive).

In the case of `COc1cc(C(=O)O)c(-c2cc3c(cc2C=O)OCO3)c(OC)c1OC`, the GI50 [2] is reported as > 10 µM (inactive), the GI50 [3] is reported as > 10 µM (inactive) and the GI50 [4] is reported as > 10 µM (inactive). The GI50 [5] was > 10 µM, the GI50 [6] was > 10 µM (inactive) and the GI50 [7] was > 10 µM (inactive). The GI50 [17] was > 10 µM (inactive), the GI50 [8] was > 10 µM (inactive) and the GI50 [9] was > 10 µM (inactive). The GI50 [11] was > 10 µM (inactive), the GI50 [18] was 4.82 µM (inactive) and the GI50 [12] was > 10 µM (inactive). The GI50 [14] was > 10 µM (inactive), the GI50 [15] was > 10 µM (inactive) and the GI50 [16] was > 10 µM (inactive).

In the case of `Cc1ccc(C(=O)N/N=C(\N=N\c2cccc([N+](=O)[O-])c2)c2ccc(N(C)C)cc2)cc1`, the GI50 [2] is reported as > 100 µM (inactive), the GI50 [3] is reported as 68.1 µM (inactive) and the GI50 [20] is reported as 25.2 µM (inactive). The GI50 [4] was > 100 µM (inactive), the GI50 [5] was 50.7 µM and the GI50 [6] was 64.9 µM (inactive). For the same compound, the GI50 [7] was 29.2 µM (inactive), the GI50 [17] was > 100 µM (inactive) and the GI50 [8] was > 100 µM (inactive). For the same compound, the GI50 [9] was 41.8 µM (inactive), the GI50 [10] was > 100 µM (inactive) and the GI50 [11] was > 100 µM (inactive). For the same compound, the GI50 [18] was 48.6 µM (inactive), the GI50 [12] was > 100 µM (inactive) and the GI50 [13] was > 100 µM (inactive). For the same compound, the GI50 [14] was 54.5 µM (inactive) and the GI50 [19] was 61.2 µM (inactive).

For `Nc1nc(Cl)cc(OCC2(CO)CC=CC2)n1`, the GI50 [1] was 90.6 µM (inactive), the GI50 [2] was > 100 µM (inactive) and the GI50 [20] was > 100 µM (inactive). For the same compound, the GI50 [4] was > 100 µM (inactive), the GI50 [5] was > 100 µM and the GI50 [17] was > 100 µM (inactive). The GI50 [9] was > 100 µM (inactive), the GI50 [10] was > 100 µM (inactive) and the GI50 [11] was > 100 µM (inactive). For the same compound, the GI50 [18] was > 100 µM (inactive), the GI50 [12] was > 100 µM (inactive) and the GI50 [14] was > 100 µM (inactive). The GI50 [15] was 27.1 µM (inactive).

`C=C1C(=O)C=C2C=C3C(=O)C(C)(C)C[C@]3(O)C12C` (stereo not given in full) was tested, and the GI50 [1] was 12.8 µM (inactive), the GI50 [2] was 20 µM (inactive) and the GI50 [3] was 1.82 µM (inactive). For the same compound, the GI50 [20] was 16.1 µM (inactive), the GI50 [4] was 19.7 µM (inactive) and the GI50 [5] was 2.25 µM. The GI50 [6] was 16.2 µM (inactive), the GI50 [7] was 1.73 µM (inactive) and the GI50 [8] was 2.36 µM (inactive). The GI50 [9] was 28.8 µM (inactive), the GI50 [10] was 9.55 µM (inactive) and the GI50 [11] was 5.65 µM (inactive). For the same compound, the GI50 [18] was 19 µM (inactive), the GI50 [12] was > 43.2 µM (inactive) and the GI50 [13] was 17.8 µM (inactive). The GI50 [14] was 29.5 µM (inactive), the GI50 [15] was 14.2 µM (inactive) and the GI50 [16] was 8.39 µM (inactive). The GI50 [19] was 7.11 µM (inactive).

For `COc1cc(C2c3cc4c(cc3[C@@H](Nc3ccc(F)cc3)C3CO[C@@H](O)[C@H]23)OCO4)cc(OC)c1O` (stereo not given in full), the GI50 [2] was 0.853 µM (active), the GI50 [20] was 14.4 µM (inactive) and the GI50 [4] was 11 µM (inactive). For the same compound, the GI50 [5] was 3.89 µM, the GI50 [6] was 5.66 µM (inactive) and the GI50 [7] was 5.26 µM (inactive). For the same compound, the GI50 [17] was 1.9 µM (inactive), the GI50 [8] was 3.48 µM (inactive) and the GI50 [9] was 7.36 µM (inactive). For the same compound, the GI50 [10] was 1.46 µM (inactive), the GI50 [11] was 6.71 µM (inactive) and the GI50 [18] was 1.24 µM (inactive). For the same compound, the GI50 [12] was 1.03 µM (active), the GI50 [14] was 3.64 µM (inactive) and the GI50 [15] was 4.83 µM (inactive). The GI50 [19] was 1.24 µM (inactive).

`CC(=O)Nc1ccc(-c2nc3ccccc3s2)cc1O` was tested, and the GI50 [1] was 69.7 µM (inactive), the GI50 [2] was 40.1 µM (inactive) and the GI50 [3] was 27 µM (inactive). For the same compound, the GI50 [4] was 30.6 µM (inactive), the GI50 [5] was 41.2 µM and the GI50 [6] was 17.2 µM (inactive). For the same compound, the GI50 [7] was 59.2 µM (inactive), the GI50 [8] was 78.2 µM (inactive) and the GI50 [9] was 17.1 µM (inactive). For the same compound, the GI50 [10] was 23 µM (inactive), the GI50 [11] was 27.8 µM (inactive) and the GI50 [18] was 52.6 µM (inactive). The GI50 [13] was 49.1 µM (inactive), the GI50 [14] was > 100 µM (inactive) and the GI50 [15] was 24.8 µM (inactive). For the same compound, the GI50 [16] was 18.1 µM (inactive) and the GI50 [19] was 19.6 µM (inactive).

— ChEMBL document CHEMBL1201862, “PubChem BioAssay data set” (2004)
